Reference: patent publication US20110053995A1, “BENZENESULFONANILIDE COMPOUND INHIBITORS OF UREA TRANSPORTERS” (THE REGENTS OF THE UNIVERSITY OF CALIFORNIA, priority 2006, published 2011)
Where two headings read alike, the source gives them in different places.

Legend:
[1] = molecular target: T1, UT-B (Homo sapiens, UniProt Q13336); experiment: RBC lysis assay, human RBCs; type: cell-based
T1 construct: a red blood cell (i.e., erythrocyte), which endogenously expresses the urea transporter UT-B; endogenous in cells; host or cells: human red blood cells (whole venous blood, single donor)
T1 sequence (Q13336 1-389): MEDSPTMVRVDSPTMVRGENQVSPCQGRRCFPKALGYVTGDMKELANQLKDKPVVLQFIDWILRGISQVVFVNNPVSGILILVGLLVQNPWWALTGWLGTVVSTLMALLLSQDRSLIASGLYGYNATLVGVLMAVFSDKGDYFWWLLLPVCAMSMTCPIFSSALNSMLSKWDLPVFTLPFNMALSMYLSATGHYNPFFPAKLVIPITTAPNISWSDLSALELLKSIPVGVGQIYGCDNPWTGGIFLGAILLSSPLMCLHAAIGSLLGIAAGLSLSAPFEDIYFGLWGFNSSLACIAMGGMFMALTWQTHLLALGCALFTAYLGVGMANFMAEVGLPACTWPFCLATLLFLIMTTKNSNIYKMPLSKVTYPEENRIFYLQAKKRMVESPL
From the text: Vigorous mixing was achieved by repeated pipetting.

[2] = molecular target: T2, rat UT-A1 (Rattus norvegicus, UniProt Q62668); experiment: UT-A1-facilitated urea flux across MDCK-UT-A1 cell layers; type: cell-based; settings: for inhibition of rat UT-A1: 25 μM
T2 construct: expressed in transfected cells; host or cells: MDCK cells (gift of Dr. Jeffrey Sands, Emory University)
T2 sequence (Q62668 1-929): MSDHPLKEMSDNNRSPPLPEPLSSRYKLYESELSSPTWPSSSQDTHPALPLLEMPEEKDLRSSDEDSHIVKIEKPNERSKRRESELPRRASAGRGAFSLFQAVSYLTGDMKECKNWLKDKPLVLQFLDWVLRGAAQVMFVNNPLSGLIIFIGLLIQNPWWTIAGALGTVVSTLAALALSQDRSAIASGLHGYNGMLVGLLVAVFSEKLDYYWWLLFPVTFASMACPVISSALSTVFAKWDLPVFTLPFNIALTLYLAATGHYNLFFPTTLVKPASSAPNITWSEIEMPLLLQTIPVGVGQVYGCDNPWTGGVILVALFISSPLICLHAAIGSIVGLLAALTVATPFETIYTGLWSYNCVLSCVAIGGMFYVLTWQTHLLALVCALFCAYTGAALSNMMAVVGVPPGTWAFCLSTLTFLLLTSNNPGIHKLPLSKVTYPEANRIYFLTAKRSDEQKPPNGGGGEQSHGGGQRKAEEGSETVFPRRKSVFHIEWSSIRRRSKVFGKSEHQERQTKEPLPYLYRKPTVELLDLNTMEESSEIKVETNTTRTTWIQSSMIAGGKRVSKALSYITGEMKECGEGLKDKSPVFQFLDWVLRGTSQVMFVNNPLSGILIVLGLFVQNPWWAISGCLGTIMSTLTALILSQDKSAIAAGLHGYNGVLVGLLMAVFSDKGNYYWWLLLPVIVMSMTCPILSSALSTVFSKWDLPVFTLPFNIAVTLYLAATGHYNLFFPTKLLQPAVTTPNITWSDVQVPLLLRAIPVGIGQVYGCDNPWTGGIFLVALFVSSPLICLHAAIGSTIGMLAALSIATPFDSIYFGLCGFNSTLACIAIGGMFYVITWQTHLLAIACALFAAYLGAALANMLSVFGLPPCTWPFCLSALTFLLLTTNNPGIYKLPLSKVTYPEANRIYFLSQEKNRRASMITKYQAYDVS
Procedure: Concentration-inhibition studies were performed to study the effect of the active mouse UT-B inhibitors on urea transport by UT-A. The amino acid sequences of UT-B and UT-A urea transporter isoforms share significant similarity. The cells used in these studies were MDCK cells that expressed rat UT-A1. MDCK-UT-A1-expressing cells were grown on collagen-coated porous filters until they were electrically tight, at which point 15 mM urea was introduced into buffer bathing the basolateral cell surface.
MDCK cells stably transfected with rat UT-A1 (MDCK-UT-A1) (Fröhlich et al., Am J Physiol. in press; Fröhlich et al., Am. J. Physiol. Cell Physiol. 286:C1264-70 (2004). Epub on Jan. 28, 2004) were generously provided by Dr. Jeffrey Sands (Emory University School of Medicine, Atlanta, Ga.). Cells were grown in Dulbecco's Modified Eagle Medium (DMEM) with bicarbonate and supplemented with 10% fetal bovine serum (FBS), 25 mM HEPES buffer, penicillin G (100 U/mL), streptomycin (100 μg/mL) and hygromycin (500 μg/mL). For determining urea flux, cells were grown on 12-mm collagen-coated TRANSWELL inserts (0.4 μm pore size; Costar) as described (Fröhlich et al., Am J Physiol. in press; Fröhlich et al., 2004, supra). The TRANSWELL inserts were incubated in hygromycin-free medium for 1 hr in a 5% CO2 tissue culture incubator (37° C.), and then 2×10^5 cells/cm^2 were loaded onto each insert. Cells were used after culturing the cells for 4 days in hygromycin-free medium, at which time they formed tight monolayers (transepithelial resistance 500-600 Ω·cm^2).
UT-A1-facilitated urea flux in the basolateral-to-apical direction across unstimulated and forskolin-stimulated MDCK-UT-A1 cell layers was measured in response to a 15-mM urea gradient. Experiments were carried out in 12-well plates in which PBS, containing either DMSO vehicle or forskolin, with or without UT-B inhibitor, added to both the apical-facing (0.2 mL) and basal-facing (1 mL) surfaces of cells on the porous filters. Cultures were incubated in the absence of urea for 30 min at 37° C. Then, the basal-facing solution was replaced with PBS (containing same components) with 15 mM urea. Five μL samples of apical fluid were collected at specified times during incubation at 37° C., and urea concentration was determined using a commercial kit based on chromogenic urea complexation at 520-nm wavelength (Quantichrom™ Urea Assay Kit, BioAssay Systems, Hayward, Calif.). Forskolin (10 μM), with or without UT-B transport inhibitors, was added from 1000× DMSO stock solutions (0.2% final DMSO content). Inhibition of UT-A1-mediated transport was defined as % inhibition=100% (Aforsk−Atest)/(Aforsk−Aphlor). Aforsk, and Aphlor were averaged absorbance values (at 520 nm) for cultures treated with forskolin and forskolin+phloretin, respectively, and Atest were values from cultures treated with forskolin+test compound.

[3] = tested on: UT; settings: non-specific membrane intercalating agent; cited from earlier work
[4] = tested on: RBCs from wild-type mice; experiment: Osmotic water permeability, RBCs from wild-type mice; type: cell-based, mouse
Procedure: FIGS. 8A-B illustrate UT-B-facilitated water transport by ‘chemical UT-B knock-out’. Osmotic water permeability was measured from the time course of RBC volume in response to a 250-mM inwardly directed sucrose gradient. FIG. 8A presents representative traces of mouse RBC water permeability performed at 10° C., with genotypes and conditions indicated. Inhibitors ureainh-201 and ureainh-302 were used at 25 μM. FIG. 8B presents osmotic water permeability coefficients (Pf) from experiments as illustrated in FIG. 8A (±SE, 3-7 curves per group of RBCs pooled from 4 mice per genotype). *, P<0.01 compared with no inhibitor; #, P<0.01 compared with wild-type (no inhibitor).
RBC urea and water permeabilities were assayed by stopped-flow light scattering using a Hi-Tech Sf-51 instrument (Wiltshire, UK). For measurement of urea permeability, dilutions of whole blood (human or mouse; see Example 1) in PBS (hematocrit: approximately 0.5%) were incubated with test compounds for 5 min and then subjected to a 250-mM inwardly directed gradient of urea. After an initial osmotic shrinking phase, the kinetics of increasing cell volume caused by urea influx were measured as the time-course of 90° scattered light intensity at 530 nm, with increasing cell volume resulting in reduced scattered light intensity. As a positive control, 0.7 mM phloretin was added to the RBC suspension prior to stopped-flow experiments. Measurements of water permeability were carried out similarly, with sucrose (cell-impermeant) used instead of urea to establish a 250-mM osmotic gradient. As a positive control, HgCl2 (0.3 mM) was added to the RBC suspension prior to stopped-flow measurements. Osmotic water permeability coefficients (Pf) were computed from light scattering data as described (van Hoek et al., J Biol Chem. 267:18267-69 (1992)).
This example describes chemical knock-out of UT-B by UT-B inhibitors in RBCs and the effect on UT-B-facilitated Water transport. […] Osmotic water permeability was measured by stopped-flow light scattering in RBCs from wild-type and AQP1-null mice as shown in FIG. 8A. […] AQP1-null RBCs had greater than 5-fold reduced Pf compared to wild-type RBCs.

[5] = Table 2, read-out: EC50 (μM), UT-B inhibitory potency
[6] = lysis assay, FIG. 5B, read-out: apparent EC50

Row | Structure (SMILES) | EC50 [1, 5] [µM] | other results
1 | Cn1c(=O)oc2cc(NS(=O)(=O)c3cccc(C(F)(F)F)c3)ccc21 [ureainh-217, N-(3-methyl-2-oxo-2,3-dihydrobenzo[d]oxazol-6-yl)-3-(trifluoromethyl) Benzenesulfonamide] | 4 | 
2 | COc1cc(OC)cc(S(=O)(=O)Nc2cc(OC)ccc2OC)c1 [ureainh-201, N-(2,5-dimethoxyphenyl)-3,5-dimethoxybenzene sulfonamide] |  | EC50 [1, 6]: 0.3 µM; inhibition of rat UT-A1 [2]: Neither ureainh-201 at 25 μM nor ureainh-404 at 25 μM significantly inhibited
3 | COc1cccc(S(=O)(=O)Nc2ccc3c(c2)OCCO3)c1 [ureainh-209, N-(2,3-dihydrobenzo [b][1,4]dioxin-6-yl)-3-Methoxybenzenesulfonamide] | 6 | 
4 | Cc1ccc(S(=O)(=O)Nc2ccc3c(c2)OCCO3)cc1C [ureainh-212, N-(2,3-dihydrobenzo[b][1,4]dioxin-6-yl)-3,4-dimethylbenzenesulfonamide] | 10 | 
5 | O=S(=O)(Nc1ccc2c(c1)OCCO2)c1cccc(Br)c1 [ureainh-211, 3-bromo-N-(2,3-dihydrobenzo[b][1,4]dioxin-6-y])benzenesulfonamide] | 8 | 
6 | Cc1cc(C)cc(S(=O)(=O)Nc2ccc3c(c2)OCCO3)c1 [ureainh-208, N-(2,3-dihydrobenzo [b][1,4]dioxin-6-yl)-3,5-dimethylbenzenesulfonamide] | 4 | 
7 | CCn1c(NCc2cc(Br)ccc2O)nc2ccccc21 [ureainh-404] |  | EC50 [1, 6]: 0.4 µM; inhibition of rat UT-A1 [2]: Neither ureainh-201 at 25 μM nor ureainh-404 at 25 μM significantly inhibited
8 | NC(=O)c1ccc(S(=O)(=O)Nc2ccc3c(c2)OCCO3)cc1 [ureainh-207, 4-(N-(2,3-dihydrobenzo [b][1,4]dioxin-6-yl)sulfamoyl)benzamide] | 2 | 
9 | CC(=O)c1cccc(S(=O)(=O)Nc2ccc3c(c2)OCCO3)c1 [ureainh-210, 3-acetyl-N-(2,3-dihydrobenzo [b][1,4]dioxin-6-yl) Benzenesulfonamide] | 6 | 
10 | COc1ccc(OC)c(NS(=O)(=O)c2ccc(Br)cc2)c1 [ureainh-202, 4-bromo-N-(2,5-dimethoxyphenyl) benzenesulfonamide] | 0.4 | 
11 | O=S(=O)(Nc1ccc2c(c1)OCCO2)c1ccc2ccccc2c1 [ureainh-213, N-(2,3-dihydrobenzo[b][1,4]dioxin-6-yl)naphthalene-2-sulfonamide] | 10 | 
12 | O=C(CCc1ccc(O)cc1)c1c(O)cc(O)cc1O [phloretin, reference compound] |  | concentration exhibiting activity [3]: > 0.5 mM; UT-A1-facilitated urea transport ([2]; phloretin 0.7 mM, forskolin-stimulated): inhibited; reduction in Pf ([4]; 0.7 mM): small but significant reduction; effect on water transport ([4]; inhibitors 25 μM, phloretin 0.7 mM, 10° C.): little effect on water transport
13 | COc1ccc(OC)c(NS(=O)(=O)c2cccc(Br)c2)c1 [ureainh-203, 3-bromo-N-(2,5-dimethoxyphenyl) benzenesulfonamide] | 0.7 | 
